Reference: ChEMBL document CHEMBL1142857, “A new class of high affinity thyromimetics containing a phenyl-naphthylene core” (Bioorg Med Chem Lett, 2005)
pIC50: −log10 of the molar value.

Legend:
[1] = molecular target: T1, Thyroid hormone receptor alpha (Homo sapiens, UniProt P10827)
T1 sequence (P10827 whole entry): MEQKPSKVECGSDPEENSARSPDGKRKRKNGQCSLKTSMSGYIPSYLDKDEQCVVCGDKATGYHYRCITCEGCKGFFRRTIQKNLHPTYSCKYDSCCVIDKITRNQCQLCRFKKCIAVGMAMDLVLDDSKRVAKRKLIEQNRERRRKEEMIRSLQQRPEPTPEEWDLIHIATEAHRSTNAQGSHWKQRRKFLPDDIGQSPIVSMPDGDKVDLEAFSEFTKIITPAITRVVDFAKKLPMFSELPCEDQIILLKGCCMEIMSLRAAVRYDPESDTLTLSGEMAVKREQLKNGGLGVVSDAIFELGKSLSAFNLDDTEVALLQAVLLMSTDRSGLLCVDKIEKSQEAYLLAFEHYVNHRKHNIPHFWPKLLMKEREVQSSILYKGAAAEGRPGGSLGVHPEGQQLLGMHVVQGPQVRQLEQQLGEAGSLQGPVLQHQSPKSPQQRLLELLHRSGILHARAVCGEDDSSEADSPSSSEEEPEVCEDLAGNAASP

[2] = molecular target: T2, Thyroid hormone receptor beta (Homo sapiens, UniProt P10828)
T2 sequence (P10828 whole entry): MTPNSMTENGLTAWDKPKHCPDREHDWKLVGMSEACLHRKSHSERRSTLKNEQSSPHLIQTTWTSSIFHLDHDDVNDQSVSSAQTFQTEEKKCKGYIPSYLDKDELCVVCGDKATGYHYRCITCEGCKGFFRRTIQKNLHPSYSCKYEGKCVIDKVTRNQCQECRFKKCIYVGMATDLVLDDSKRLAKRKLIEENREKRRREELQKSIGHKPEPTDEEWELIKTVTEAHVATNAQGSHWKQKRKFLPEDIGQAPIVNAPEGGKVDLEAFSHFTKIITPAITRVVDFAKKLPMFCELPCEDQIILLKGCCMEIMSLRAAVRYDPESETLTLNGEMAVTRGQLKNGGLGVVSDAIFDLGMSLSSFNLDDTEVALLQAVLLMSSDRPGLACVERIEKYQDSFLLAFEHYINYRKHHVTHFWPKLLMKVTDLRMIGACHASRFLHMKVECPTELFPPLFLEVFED
Description: Inhibitory concentration against cloned human thyroid hormone receptor beta 1

[3] = molecular target: T1, Thyroid hormone receptor alpha; test: Inhibitory concentration against cloned human thyroid hormone receptor alpha 1

SMILES	pIC50 [1]	pIC50 [2]	pIC50 [3]
Cc1c(O)ccc2c(-c3c(Cl)cc(NC(=O)O)cc3Cl)cccc12	7.32	8.14	–
O=C(O)Cc1cc(Cl)c(Oc2ccc(O)cc2)c(Cl)c1	5.44	5.67	–
O=C(O)CC(=O)Nc1cc(Cl)c(-c2cccc3c(Br)c(O)ccc23)c(Cl)c1	8.37	9.52	–
O=C(O)Cc1cc(Cl)c(-c2cccc3c(Br)c(O)ccc23)c(Cl)c1	7.00	7.89	–
O=C(O)Cc1cc(Cl)c(-c2cccc3cc(O)ccc23)c(Cl)c1	–	6.26	5.81
O=C(O)Nc1cc(Cl)c(-c2cccc3c(-c4ccccc4)c(O)ccc23)c(Cl)c1	6.90	7.54	–
O=C(O)Cc1cc(Cl)c(Oc2ccc(O)c(Br)c2)c(Cl)c1	6.96	8.05	–
O=C(O)CCC(=O)Nc1cc(Cl)c(-c2cccc3c(Br)c(O)ccc23)c(Cl)c1	7.21	7.66	–

The remaining molecules from weak to strong by pIC50 [2], led by results:

pIC50 [1]	pIC50 [2]	pIC50 [3]	SMILES
7.72	8.74	–	O=C(O)CNc1cc(Cl)c(-c2cccc3c(Br)c(O)ccc23)c(Cl)c1
7.89	8.74	–	O=C(O)CCNc1cc(Cl)c(-c2cccc3c(Br)c(O)ccc23)c(Cl)c1
7.85	9.52	–	COc1ccc2c(-c3c(Cl)cc(NC(=O)CC(=O)O)cc3Cl)cccc2c1C(C)C
8.27	9.52	–	O=C(O)C(=O)Nc1cc(Cl)c(-c2cccc3c(Br)c(O)ccc23)c(Cl)c1
